Results on 4 molecules are retold here after patent US10952435B2, “Pyridine-2-carboxamides as nematocides” (SYNGENTA PARTICIPATIONS AG, priority 2013, dated 2021).

Each structure is given as a SMILES string.

In the case of `O=C(NCCc1ccc(F)cc1F)c1ncccc1C(F)(F)F` [A.005], the melting point is 78 °C.

`Cc1cccnc1C(=O)NCC(F)(F)c1ccc(Cl)cc1Cl` [A.009, N-[2-(2,4-dichlorophenyl)-2,2-difluoro-ethyl]-3-methyl-pyridine-2-carboxamide] came in with a melting point of 117 to 118 °C.

For `O=C(NCCc1ccc(Cl)cc1F)c1ncccc1C(F)(F)F` [A.002, 3-Trifluoromethyl-pyridine-2-carboxylic acid [2-(4-chloro-2-fluoro-phenyl)-ethyl]-amide], the melting point is 69 °C.

With `O=C(NCCc1ccc(C(F)(F)F)cc1F)c1ncccc1C(F)(F)F` [A.001, 3-Trifluoromethyl-pyridine-2-carboxylic acid [2-(2-fluoro-4-trifluoromethyl-phenyl)-ethyl]-amide], the melting point is 95 °C.
